“And” between values parts separate entries of the source, which are not always exact repeats. Equal values may be shown once. Read-outs that look alike come from different tables or passages of the source.
Key:
human serum albumin [1] = molecular target: T1, human serum albumin (Homo sapiens, UniProt P02768); assay: HSA binding on Chiralpak HSA column; type: in vitro ADME; details: for HSA Binding: Chiralpak HSA column (50 × 3 mm, 5 μm); for Log K HSA: reference substances for calibration of the HSA-column
T1 construct: purchased H13H-2433
T1 sequence (P02768 25-609): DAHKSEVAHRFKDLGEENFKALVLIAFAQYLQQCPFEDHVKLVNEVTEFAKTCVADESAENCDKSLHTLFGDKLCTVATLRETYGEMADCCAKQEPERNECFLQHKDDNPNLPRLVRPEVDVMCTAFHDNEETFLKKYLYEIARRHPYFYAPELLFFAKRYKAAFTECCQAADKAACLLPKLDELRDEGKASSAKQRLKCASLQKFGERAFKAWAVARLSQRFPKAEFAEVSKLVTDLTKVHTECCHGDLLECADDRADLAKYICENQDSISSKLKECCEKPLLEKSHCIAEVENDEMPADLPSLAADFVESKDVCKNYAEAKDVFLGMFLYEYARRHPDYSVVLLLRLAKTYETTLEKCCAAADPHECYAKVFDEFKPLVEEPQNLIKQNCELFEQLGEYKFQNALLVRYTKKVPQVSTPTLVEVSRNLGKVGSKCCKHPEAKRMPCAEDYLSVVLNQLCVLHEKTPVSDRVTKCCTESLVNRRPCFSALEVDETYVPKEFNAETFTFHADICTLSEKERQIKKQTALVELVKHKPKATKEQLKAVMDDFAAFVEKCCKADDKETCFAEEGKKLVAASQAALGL
Procedure: The mobile phase (A: NH4OAc, 50 mM in water, pH 7 and B: isopropanol) was freshly prepared for each experiment and only used for one day. The column was kept at room temperature and each run was stopped after detection of the signal to reduce the acquisition time. All substances were dissolved in a 0.5 mg/ml concentration in 50% 2-propanol and 50% 50 mM pH 6.9 ammonium acetate buffer. […] All nine reference substances were injected consecutively to establish a non-linear regression with Origin Pro 2016G.

[2] = Octanol-water partition coefficient (n-octanol/PBS pH 7.4); type: physicochemical; details: for log P: octanol/PBS7.4, (n = 6)
Procedure: Approximately 1 MBq of the labeled tracer was dissolved in 1 mL of a 1:1 mixture (by volumes) of phosphate buffered saline (PBS, pH 7.4) and n-octanol in an Eppendorf tube. After vigorous mixing of the suspension for 3 minutes at room temperature, the vial was centrifuged at 15000 g for 3 minutes (Biofuge 15, Heraus Sepatech, Osterode, Germany) and 100 μL aliquots of both layers were measured in a gamma counter. The experiment was repeated at least six times.
Determianation of the IogP values was carried out in phosphate buffered saline (PBS, pH 7.4) and n-octanol (=logPoct/PBS).

human serum albumin [3] = molecular target: T1, human serum albumin; details: reference substances for calibration of the HSA-column; cited from earlier work
[4] = test system: PSMA-positive LNCaP cells; assay: Internalization in LNCaP cells, normalized to ([125I]I-BA)KuE; type: cell-based; details: for individual internalization rates / internalization rate Mean: LNCaP cells, 1 hour, 37° C.; for individual internalization rates: c=0.5 nM, single measurements
Procedure: Data is corrected for non-specific binding ([…]) and expressed as mean±SD (n=3).
Subsequent to the removal of the culture medium, the cells were washed once with 500 μL DMEM-F12 (5% BSA) and left to equilibrate for at least 15 min at 37° C. in 200 μL DMEM-F12 (5% BSA). Each well was treated with either 25 μL of either DMEM-F12 (5% BSA) or a 100 μM PMPA solution for blockade. Next, 25 μL of the ^68Ga/^18F-labeled PSMA inhibitor (5.0 nM) was added and the cells incubated at 37° C. for 60 min. The experiment was terminated by placing the 24-well plate on ice for 3 min and consecutive removal of the medium. Each well was rinsed with 250 μL HBSS and the fractions from these first two steps combined, representing the amount of free radioligand. Removal of surface bound activity was accomplished by incubation of the cells with 250 μL of ice-cold PMPA (10 μM in PBS) solution for 5 min and rinsed again with another 250 μL of ice-cold PBS. The internalized activity was determined by incubation of the cells in 250 μL 1 M NaOH and the combination with the fraction of a subsequent wash step with 250 μL 1.0 M NaOH. Each experiment (control and blockade) was performed in triplicate. Free, surface bound and internalized activity was quantified in a γ-counter. […] Data were corrected for non-specific internalization and normalized to the specific-internalization observed for the radioiodinated reference compound.

PSMA = molecular target: T2, PSMA (Homo sapiens, UniProt Q04609); assay: Determination of IC50: PSMA affinity, competitive binding on LNCaP cells against ([125I]I-BA)KuE
T2 construct: endogenous in cells; host or cells: LNCaP cells
T2 sequence (Q04609 whole entry): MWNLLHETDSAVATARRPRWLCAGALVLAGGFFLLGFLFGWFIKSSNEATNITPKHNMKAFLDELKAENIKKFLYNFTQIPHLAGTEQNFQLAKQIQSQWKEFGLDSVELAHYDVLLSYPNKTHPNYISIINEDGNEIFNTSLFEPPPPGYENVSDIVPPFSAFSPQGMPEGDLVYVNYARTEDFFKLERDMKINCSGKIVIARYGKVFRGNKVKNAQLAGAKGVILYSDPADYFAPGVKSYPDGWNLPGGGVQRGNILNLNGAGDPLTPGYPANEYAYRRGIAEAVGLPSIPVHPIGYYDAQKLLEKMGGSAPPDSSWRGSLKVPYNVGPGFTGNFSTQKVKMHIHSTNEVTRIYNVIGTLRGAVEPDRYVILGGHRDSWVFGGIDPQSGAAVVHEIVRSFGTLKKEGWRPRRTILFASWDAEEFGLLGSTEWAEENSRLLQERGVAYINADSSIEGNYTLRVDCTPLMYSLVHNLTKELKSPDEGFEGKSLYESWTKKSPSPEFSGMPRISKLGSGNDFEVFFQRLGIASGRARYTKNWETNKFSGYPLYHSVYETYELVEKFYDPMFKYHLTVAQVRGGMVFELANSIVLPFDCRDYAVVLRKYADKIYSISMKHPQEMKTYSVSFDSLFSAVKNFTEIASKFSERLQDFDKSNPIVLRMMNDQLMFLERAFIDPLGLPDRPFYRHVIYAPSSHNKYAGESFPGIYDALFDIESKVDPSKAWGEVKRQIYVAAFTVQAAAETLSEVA
Procedure: Data are expressed as mean±SD (n=3, in 3 different experiments).
After removal of the culture medium, the cells were treated once with 500 μL of HBSS (Hank's balanced salt solution, Biochrom, Berlin, Germany, with addition of 1% bovine serum albumin (BSA)) and left 15 min on ice for equilibration in 200 μL HBSS (1% BSA). […] Quantification of bound and free radioligand was accomplished in a γ-counter.

[5] = test system: LNCaP tumor-bearing SCID mice; assay: Biodistribution at 1 h p.i.; type: in vivo; details: for Biodistribution tumor: LNCaP tumor
Procedure: FIG. 10: Biodistribution (in % ID/g) of ^18E-labeled rhPSMA tracers at 1 h p.i in LNCaP tumor-bearing SCID mice. Data are expressed as mean±SD (n=4 for rhPSMA7.1, n=5 for 7.2, n=4 for 7.3, n=5 for 7.4 and n=3 for 7-rac).

[6] = test system: LNCaP tumor-bearing SCID mice; assay: Biodistribution at 1 h p.i. with competition (co-injected PMPA); type: in vivo; details: co-injected with PMPA (8 mg/kg); for Biodistribution tumor: LNCaP tumor
Procedure: FIG. 11: Biodistribution [% ID/g] of ^18F-rhPSMAs co-injected with PMPA (8 mg/kg) at 1 h p.i in LNCaP tumor-bearing SCID mice. Data are expressed as mean±SD (n=3).

[7] = Wängler et al. 2010; cited from earlier work
[8] = LNCaP cells, [125I]IB-KuE c=0.2 nM, 1 h, 4° C., HBSS+1% BSA, single measurements, read-out: individual IC50 measurements
[9] = LNCaP cells, [125I]IB-KuE c=0.2 nM, 1 h, 4° C., mean of individual measurements, read-out: IC50 Mean

## O=C(O)CC[C@H](NC(=O)N[C@@H](CCCCNC(=O)c1ccc(F)nc1)C(=O)O)C(=O)O [DCFPyL, reference compound]
Human serum albumin [1]
  HSA Binding: 14.3%
[2]; pH 7.4
  logP: -3.4

## CCCN(CCC)S(=O)(=O)c1ccc(C(=O)O)cc1 [Probenecid]
Human serum albumin [3]
  Lit. HSA % (literature value of human serum albumin binding): 95.00%

## Nc1ccccc1 [Aniline]
Human serum albumin [1]
  Log K HSA: −0.79
Human serum albumin [3]
  Lit. HSA % (literature value of human serum albumin binding): 14.06%

## COc1ccc(Cl)cc1C(=O)NCCc1ccc(S(=O)(=O)NC(=O)NC2CCCCC2)cc1 [Glibenclamide]
Human serum albumin [1]
  Log K HSA: 1.69
Human serum albumin [3]
  Lit. HSA % (literature value of human serum albumin binding): 99.00%

## CC(C)(C)[Si](F)(c1ccc(C(=O)NC[C@H](NC(=O)CC[C@H](C(=O)O)N2CCN(CC(=O)[O-])CCN(CC(=O)[O-])CCN(CC(=O)[O-])CC2)C(=O)N[C@H](CCCCNC(=O)CCC(=O)NCCC[C@@H](NC(=O)CC[C@H](NC(=O)N[C@@H](CCC(=O)O)C(=O)O)C(=O)O)C(=O)O)C(=O)O)cc1)C(C)(C)C.[Ga+3] [rhPSMA7.2, [^19F][^natGa]L-Dap-R-DOTAGA-rhPSMA7]
Human serum albumin [1]
  HSA Binding: 97.8%
[4]
  individual internalization rates: 192.3 % of [^125I]IB-KuE and 188.7 % of [^125I]IB-KuE and 182.7 % of [^125I]IB-KuE and 169.5 % of [^125I]IB-KuE and 205.3 % of [^125I]IB-KuE and 212.6 % of [^125I]IB-KuE
  internalization rate Mean: 191.83 % of [^125I]IB-KuE
[2]
  log P: −3.13 ± 0.22
[2]; octanol/PBS7.4, mean of individual measurements
  log P Mean: −3.13
[2]; octanol/PBS7.4, single measurements
  individual log P measurements: −3.03 and −2.96 and −2.94 and −2.89 and −3.02 and −3.06 and −2.99 and −3.14 and −3.40 and −3.50 and −3.45 and −3.53 and −3.48 and −3.00 and −3.01
PSMA; [8]
  IC50: 2.64 nM and 2.76 nM and 3.94 nM and 5.8 nM and 4.31 nM and 4.32 nM and 3.17 nM and 2.97 nM and 3.36 nM
PSMA; [9]
  IC50: 3.7 nM
[5]
  Biodistribution adrenals: 1.3 ± 0.8 % ID/g
  Biodistribution blood: 0.56 ± 0.20 % ID/g
  Biodistribution bone: 0.31 ± 0.24 % ID/g
  Biodistribution heart: 0.32 ± 0.13 % ID/g
  Biodistribution intestine: 0.18 ± 0.07 % ID/g
  Biodistribution kidneys: 87.6 ± 28.8 % ID/g
  Biodistribution liver: 0.35 ± 0.08 % ID/g
  Biodistribution lung: 0.89 ± 0.38 % ID/g
  Biodistribution muscle: 0.13 ± 0.07 % ID/g
  Biodistribution pancreas: 0.21 ± 0.08 % ID/g
  Biodistribution spleen: 10.1 ± 6.3 % ID/g
  Biodistribution stomach: 0.19 ± 0.08 % ID/g
  Biodistribution tumor: 6.5 ± 2.3 % ID/g
[6]
  Biodistribution adrenals: 0.07 ± 0.10 % ID/g
  Biodistribution blood: 1.1 ± 0.31 % ID/g
  Biodistribution bone: 0.57 ± 0.39 % ID/g
  Biodistribution heart: 0.47 ± 0.09 % ID/g
  Biodistribution intestine: 0.33 ± 0.10 % ID/g
  Biodistribution kidneys: 10.9 ± 1.0 % ID/g
  Biodistribution liver: 0.46 ± 0.07 % ID/g
  Biodistribution lung: 1.1 ± 0.32 % ID/g
  Biodistribution muscle: 0.09 ± 0.03 % ID/g
  Biodistribution pancreas: 0.12 ± 0.05 % ID/g
  Biodistribution spleen: 0.26 ± 0.07 % ID/g
  Biodistribution stomach: 0.21 ± 0.06 % ID/g
  Biodistribution tumor: 1.0 ± 0.13 % ID/g

## [^19F][^natGa]L-Dap-S-DOTAGA-rhPSMA7 [rhPSMA7.4]
Human serum albumin [1]
  HSA Binding: 96.6%
[4]
  individual internalization rates: 209.6 % of [^125I]IB-KuE and 202.6 % of [^125I]IB-KuE and 209.8 % of [^125I]IB-KuE
  internalization rate Mean: 207.33±4.06 % of [^125I]IB-KuE and 207.33 % of [^125I]IB-KuE
PSMA; [8]
  IC50: 3.4 nM and 3.56 nM and 2.79 nM and 4.57 nM and 3.78 nM
PSMA; [9]
  IC50: 3.62 nM
[5]
  Biodistribution adrenals: 3.57 ± 2.38 % ID/g
  Biodistribution blood: 1.15 ± 0.30 % ID/g
  Biodistribution bone: 0.62 ± 0.30 % ID/g
  Biodistribution heart: 0.71 ± 0.26 % ID/g
  Biodistribution intestine: 0.37 ± 0.09 % ID/g
  Biodistribution kidneys: 153 ± 80.3 % ID/g
  Biodistribution liver: 0.69 ± 0.20 % ID/g
  Biodistribution lung: 1.59 ± 0.61 % ID/g
  Biodistribution muscle: 0.31 ± 0.08 % ID/g
  Biodistribution pancreas: 0.50 ± 0.30 % ID/g
  Biodistribution spleen: 18.4 ± 9.77 % ID/g
  Biodistribution stomach: 0.25 ± 0.06 % ID/g
  Biodistribution tumor: 18.9 ± 3.27 % ID/g
[6]
  Biodistribution adrenals: 0.03 ± 0.04 % ID/g
  Biodistribution blood: 0.82 ± 0.17 % ID/g
  Biodistribution bone: 1.0 ± 0.8 % ID/g
  Biodistribution heart: 0.37 ± 0.05 % ID/g
  Biodistribution intestine: 0.36 ± 0.08 % ID/g
  Biodistribution kidneys: 7.2 ± 2.4 % ID/g
  Biodistribution liver: 0.48 ± 0.14 % ID/g
  Biodistribution lung: 0.74 ± 0.14 % ID/g
  Biodistribution muscle: 0.20 ± 0.05 % ID/g
  Biodistribution pancreas: 0.18 ± 0.09 % ID/g
  Biodistribution spleen: 0.28 ± 0.15 % ID/g
  Biodistribution stomach: 0.20 ± 0.07 % ID/g
  Biodistribution tumor: 0.99 ± 0.19 % ID/g

## SIFA-Asn(AcNH-β-Glc)-Tyr^3-octreotate
[7]
  log P(ow): 1.23

## Oc1ccccc1 [Phenol]
Human serum albumin [1]
  Log K HSA: −0.59
Human serum albumin [3]
  Lit. HSA % (literature value of human serum albumin binding): 20.69%

## SIFA-Asn(AcNH-β-Glc)-PEG-Tyr^3-octreotate
[7]
  log P(ow): 0.96

## O=C(O)c1ccccc1 [Benzoic Acid]
Human serum albumin [3]
  Lit. HSA % (literature value of human serum albumin binding): 34.27%

## PSMA-1007 [reference compound]
Human serum albumin [1]
  HSA Binding: 97.8%
[4]; identical assay, carried out in our lab (Robu et al. 2018)
  internalization of other selected PSMA inhibitors: 118 ± 4 % of [^125I]IB-KuE
[2]
  log P: −1.6
PSMA; identical binding assay, carried out in our lab (Robu et al. 2018), read-out: IC50 of other selected PSMA inhibitors
  IC50: 4.2 ± 0.5 nM
